Series [1] has as its system nitric oxide (NO) production in LPS-activated RAW 264.7 macrophages. As to the kind of experiment: Suppression of NO release (Griess reaction) in LPS/TLR4-activated RAW 264.7 macrophages. Type of series: cell-based, mouse. The conditions noted are these: for pIC50: 1 h pre-treatment, LPS 100 ng/mL, Griess reaction at 48 h, read-out: Inhibition of NO Production (IC50). On the procedure:
The anti-inflammatory activity of metabolites 1, 2, 4–8, 10, 12–16, 18 and 20–22 was evaluated using the RAW 264.7 macrophage cell line, which has been proven to be a powerful tool for the detection of bioactivity of natural products. The bioactivity of compounds 3, 9, 11, 17 and 19 was not evaluated since they were either proven unstable or isolated in insufficient amounts. RAW 264.7 macrophages were stimulated with the TLR4 ligand LPS, which triggers a pro-inflammatory signal that induces nitric oxide (NO) production, and […] with increasing concentrations of the tested metabolites. The detection of NO was achieved using Griess reaction 48 h following cell activation and was used to determine the IC50 values. Inhibition of NO production was determined by comparing metabolite-treated cells with cells exposed to the vehicle solvent only (0.1% v/v Carbowax^TM 400 and 0.01% v/v ethanol). […] Mouse macrophage RAW 264.7 cell line was cultured in DMEM medium (cat. # 21885-025, Gibco) supplemented with 10% v/v heat-inactivated fetal bovine serum (cat. # 10270-106, Gibco) and 1% v/v penicillin-streptomycin (cat. # 15070-063, Gibco). Cells were grown in stable conditions, 37 °C and 5% CO2, in a CO2 cell culture sterile incubator. In compound treatments, each compound tested was diluted in Carbowax^TM 400 + 10% abs. ethanol (E/0650DF/17, Fisher chemical), serving also as the control solvent. The final concentration of ethanol in cell culture was 0.01% v/v and of Carbowax^TM 400 0.1% v/v independently of the compound dilution prepared. Macrophage activation was performed using 100 ng/mL LPS (L2630, Sigma) and, in the case of compound-treated cells, macrophages were pre-treated for 1 h with the respective compounds before LPS stimulation. 30 × 10^4 RAW 264.7 mouse macrophages per sample were cultured overnight in 24-well plates. The following day, cells were pre-treated for 1 h with the respective compound concentration and then activated using LPS (100 ng/mL) for 48 h. The amount of nitrite, an oxidative product of NO, released in each culture supernatant was measured using Griess reaction. Accordingly, 50 µL of sulfanilamide solution (1% sulfanilamide in 5% H3PO4) was added to 50 µL of cell culture supernatant and the mix was incubated for 5 min at room temperature. Then, 50 µL of NED solution (0.1% N-1-napthylethylenediamine dihydrochlorite in H2O) was added and the absorbance was measured at 540 nm using an automated microplate reader (Infinite 200 PRO, Tecan). All incubations were performed in the dark and the nitrite concentration was estimated using a sodium nitrite standard curve.
(In general: The Griess reaction detects nitrite, a stable product of nitric oxide.)

Another series has as its system RAW 264.7 cells. As to the kind of experiment: MTT assay, cytostatic activity on RAW 264.7 cells. Type of series: cell-based, mouse. The conditions noted are these: for Cytostatic Activity: RAW 264.7, at 72 h, n.a. = no cytostatic activity observed at the concentrations tested; for cytostatic activity above the stated concentration: RAW 264.7, 24, 48 and 72 h. Here is the method:
In order to verify that the anti-inflammatory activity observed was not due to a potential cytostatic effect of the metabolites, an MTT assay was performed in cells exposed to increasing concentrations of metabolites 1, 2, 4–8, 10, 12–16, 18 and 20–22 for 24, 48 and 72 h (Table 3, Figure 5). The time point that the cytostatic activity was observed reflected its potency since cytotoxicity is a cumulative process.
Mouse macrophage RAW 264.7 cell line was cultured in DMEM medium (cat. # 21885-025, Gibco) supplemented with 10% v/v heat-inactivated fetal bovine serum (cat. # 10270-106, Gibco) and 1% v/v penicillin-streptomycin (cat. # 15070-063, Gibco). Cells were grown in stable conditions, 37 °C and 5% CO2, in a CO2 cell culture sterile incubator. In compound treatments, each compound tested was diluted in Carbowax^TM 400 + 10% abs. ethanol (E/0650DF/17, Fisher chemical), serving also as the control solvent. The final concentration of ethanol in cell culture was 0.01% v/v and of Carbowax^TM 400 0.1% v/v independently of the compound dilution prepared. Macrophage activation was performed using 100 ng/mL LPS (L2630, Sigma) and, in the case of compound-treated cells, macrophages were pre-treated for 1 h with the respective compounds before LPS stimulation.
5 × 10^3 RAW 264.7 mouse macrophages per sample were seeded in 96-well plates (one plate per measurement) and cultured overnight. Cells were treated with the respective compound concentration and incubated for 24, 48 or 72 h. The number of cells was measured prior to treatment and used as normalization control. Thiazolyl Blue Tetrazolium Bromide (MTT) (A2231.001, Applichem) was added to the cells in a final concentration of 500 µg/mL and then cells were incubated at 37 °C plus 5% CO2 for 4 h. The supernatant was removed, and cells were lysed in a mix of 100 μL of isopropanol with 0.4% HCl. The absorbance of each sample was measured using an automated microplate reader (Infinite 200 PRO, Tecan) at 600 nm. The average OD of each treated sample was normalized to the OD of the control sample.

The nature of series [2]: Chemical stability of the isolated compound upon standing. Type of series: physicochemical. The conditions noted are these: upon standing after isolation.
Setting [3] is: Mus musculus, RAW264.7, RAW 264.7 macrophages.

pIC50: −log10 of the molar value. “Also recorded” adds a separate entry of the source. Read-outs that look alike come from different tables or passages of the source.

Experimental findings from PMC9968125, “Secondary Metabolites with Anti-Inflammatory Activity from Laurencia majuscula Collected in the Red Sea” (Marine Drugs, 2023) are described below.

Consider `C#C/C=C\CC(Br)[C@@H]1C[C@@H](OC(C)=O)[C@H](CCCCC)O1` (relative stereo) [Compound 5, (3Z,7S*,9R*,10S*)-9-acetoxy-6-bromo-7,10-epoxypentadec-3-en-1-yne], for which the negative logarithm of the IC50 (pIC50) in series [1] (setting [3]) was 5.43. In the series with RAW 264.7 cells, the Cytostatic Activity was greater than 50 µM.
Consider `C[C@@]12O[C@]1(C)CC[C@@]2(C)c1ccc(CO)cc1` (relative stereo) [Compound 10, (1S*,2S*,3R*)-2,3-epoxy-15-hydroxydihydroisolaurene], for which, in series [1] (setting [3]), the negative-log IC50 (pIC50) is 4.69. Moreover, in the series on RAW 264.7 cells, the “cytostatic activity above the stated concentration” value is “above 50 μM” and the Cytostatic Activity was greater than 50 µM.
Take `CC(=O)CC[C@](C)(C(C)=O)c1ccc(CO)cc1` (single isomer, unassigned) [Compound 14, 2,3-dioxo-15-hydroxy-seco-laurene]: the pIC50 in series [1] (setting [3]) was 4.64. In addition, in the series with RAW 264.7 cells, the “cytostatic activity above the stated concentration” value is “above 25 μM” and the Cytostatic Activity is greater than 25 µM.
With `Cc1ccc([C@]2(C)CC[C@@]3(C)O[C@]32C)cc1` (relative stereo) [Compound 11, (1S*,2S*,3R*)-2,3-epoxydihydroisolaurene], the “stability of the isolated compound, in words” value in series [2] is “quite unstable”.
As to `C#CC=CC(Cl)C1C2CC3OC(OC)(C(Br)CC)C1C3O2` (centres unmarked) [Compound 1, Maneonene F], the pIC50 in series [1] (setting [3]) is 4.99. In the series on RAW 264.7 cells, the “cytostatic activity above the stated concentration” value was “did not exhibit any cytostatic activity; also recorded: did not show any cytostatic effect”.
As to `C#CC=CC(Cl)C1C2CC3OC(OC)(C(Br)CC)C1C3O2` (centres unmarked) [Compound 2, Maneonene G], the negative-log IC50 (pIC50) in series [1] (RAW 264.7 macrophages) is 4.90. Also, in the series on RAW 264.7 cells, the “cytostatic activity above the stated concentration” value was “above 25 μM” and the Cytostatic Activity is greater than 25 µM.
In the case of `CC1CCC(O)C2=CCC3C(C3(C)C)C21C` (stereo not drawn) [Compound 20, aristol-9-en-1α-ol], in series [1] (setting [3]), the negative logarithm of the IC50 (pIC50) was 4.98. Further, in the series with RAW 264.7 cells, the “cytostatic activity above the stated concentration” value is listed as “above 50 μM” and the Cytostatic Activity was greater than 50 µM.
In the case of `C=C1CCC(Br)C(C)(C)C12CCC1(C)C(Br)CCC(C)(O)C1C2` (centres unmarked) [Compound 21, kahukuene B], the pIC50 in series [1] (setting [3]) is 5.18. In addition, the Cytostatic Activity in the series on RAW 264.7 cells was greater than 25 µM.
As to `CC1=C(C)[C@](C)(c2ccc(C)cc2)CC1` [Compound 6, isolaurene], the “concentration at which significant NO reduction was observed” value in series [1] (LPS-activated RAW 264.7, activity only at this concentration) stood at 62.5 µM. Further, the negative-log IC50 (pIC50) in series [1] (setting [3]) is less than 4.20. Besides, the Cytostatic Activity with RAW 264.7 cells was greater than 50 µM.
As for `CC1=CC[C@@H](Br)C(C)(C)[C@]12CC[C@](C)(Cl)[C@@H](Br)C2` [Compound 16, 2,10-dibromo-3-chloro-a-chamigrene], the pIC50 in series [1] (setting [3]) is 5.30. Further, in the series with RAW 264.7 cells, the “cytostatic activity above the stated concentration” value is “above 25 μM” and the Cytostatic Activity is greater than 25 µM.
Regarding `CC1=CC[C@H](C)[C@](C)(O)[C@@]12CC[C@@](C)(Cl)[C@H](Br)C2` [Compound 18, compositacin A], the pIC50 in series [1] (setting [3]) was 5.45.
With `C=C1[C@](C)(O)CC[C@@]1(C)c1ccc(CO)cc1` [Compound 12, laur-2-ene-3,12-diol], the negative-log IC50 (pIC50) in series [1] (setting [3]) was 4.34. For the same compound, in the series on RAW 264.7 cells, the “cytostatic activity above the stated concentration” value is “above 50 μM” and the Cytostatic Activity was greater than 50 µM.
For `C#C/C=C\[C@@H](Cl)[C@H]1[C@@H]2/C(=C(/Br)CC)O[C@@H]3C[C@H]1O[C@H]23` [Compound 4, cis-maneonene D], the pIC50 in series [1] (setting [3]) is 5.05. Further, the “cytostatic activity above the stated concentration” value with RAW 264.7 cells was “did not exhibit any cytostatic activity; also recorded: no significant cytostatic activity”.
Regarding `C=CC(C)(O)CC[C@@H]1C(=C)CC[C@H](Br)C1(C)C` (stereo partly drawn) [Compound 15, β-snyderol], in series [1] (setting [3]), the negative-log IC50 (pIC50) was 4.48. In addition, in the series with RAW 264.7 cells, the “cytostatic activity above the stated concentration” value is reported as “above 25 μM” and the Cytostatic Activity is greater than 25 µM.
As for `CC1(C)[C@H](O)CC[C@@]1(C)c1ccc(CO)cc1` [Compound 13, cuparene-3,12-diol], the pIC50 in series [1] (setting [3]) is 4.62. Besides, in the series on RAW 264.7 cells, the “cytostatic activity above the stated concentration” value is “above 50 μM” and the Cytostatic Activity was greater than 50 µM.
On to `CCCCCCCCCCCC/C=C(\Cl)C=O` [Compound 22, (2Z)-2-chloro-pentadec-2-enal], for which the negative-log IC50 (pIC50) in series [1] (setting [3]) is 4.88. For the same compound, in the series on RAW 264.7 cells, the “cytostatic activity above the stated concentration” value is greater than 3.125 µM and the Cytostatic Activity was greater than 3.12 µM.
On to `CC1=C(C)[C@](C)(c2ccc(CBr)cc2)CC1` (single isomer, unassigned) [Compound 8, 15-bromoisolaurene], for which the pIC50 in series [1] (setting [3]) is 5.16. Besides, in the series with RAW 264.7 cells, the “cytostatic activity above the stated concentration” value is listed as “above 25 μM” and the Cytostatic Activity is greater than 25 µM.
Turning to `CC1=C(C)[C@](C)(c2ccc(C)cc2)CC1=O` (stereo in doubt) [Compound 7, 4-oxoisolaurene], the pIC50 in series [1] (setting [3]) is 4.60. Besides, in the series on RAW 264.7 cells, the “cytostatic activity above the stated concentration” value is “above 25 μM” and the Cytostatic Activity was greater than 25 µM.
Regarding `C#CC=CC(Cl)C1C2CC3OC(OC)(C(Br)CC)C1C3O2` (centres unmarked) [Compound 3, Maneonene H], in series [2], the “stability of the isolated compound, in words” value was “unstable”.

By pIC50 is commonly meant the negative decadic logarithm of the IC50, by convention in mol/L.
